In patent US10865216B2, “Tricyclic Gyrase inhibitors” (MERCK SHARP & DOHME CORP., priority 2012, dated 2020):
Values after ≈ are worked out from the molar mass of the structure shown. Like-named read-outs stand apart in the source and are kept apart here.

Experiments:
Format in all cases: cell-based
S. aureus ATCC 13709 = test: MIC, S. aureus ATCC 13709; settings: for Sa MIC: Table 10; for SA MIC: Table 17, comparative, new species of R2; for MIC: Staphylococcus aureus
S. pneumoniae ATCC 51916 = test: MIC, S. pneumoniae ATCC 51916; settings: for Spn MIC / MIC: Table 10, Spn = S. pneumoniae; for Spn52 MIC: Table 17, comparative, Spn52 not defined; for MIC: Streptococcus pneumoniae, ATCC51916
E. coli ATCC 25922 = test: MIC, E. coli ATCC 25922; settings: for Ec MIC: Table 10; for MIC: Escherichia coli
P. aeruginosa ATCC 15692 = test: MIC, P. aeruginosa ATCC 15692; settings: for Pa MIC / MIC: Table 10, Pa = P. aeruginosa; for PA MIC: Table 17, comparative, new species of R2; for MIC: Pseudomonas aeruginosa, ATCC15692
A. baumannii ATCC 19606 = test: MIC, A. baumannii ATCC 19606; settings: Table 10, Ab = A. baumannii, strain not stated; for MIC: Acinetobacter baumannii, ATCC19606
[1] = test system: K. pneumoniae ATCC 700603; test: MIC, K. pneumoniae ATCC 700603; settings: Table 10, Kpn = K. pneumoniae; for MIC: Klebsiella pneumoniae, ATCC700603
Y. pestis CO92 pgm- = settings: Table 10
[2] = test system: B. thailandensis ATCC E264; test: microbe, parasite or virus in culture
[3] = test system: F. tularensis holarctica LVS; test: microbe, parasite or virus in culture; settings: Table 10; Ft = F. tularensis, strain not stated
[4] = S. aureus, Alamar Blue read after overnight incubation at 35° C.
[5] = E. coli, Alamar Blue read after overnight incubation at 35° C.
[6] = Ec = E. coli, strain not stated
[7] = ATCC13709, S. aureus, Alamar Blue read after overnight incubation at 35° C., read-out: MIC Sa
[8] = ATCC13709, Table 10, Sa = S. aureus, read-out: Sa MIC
[9] = ATCC25922, E. coli, Alamar Blue read after overnight incubation at 35° C., read-out: MIC Ec
[10] = ATCC25922, Table 10, Ec = E. coli, strain not stated, read-out: Ec MIC

| Structure (SMILES) | MIC Sa (S. aureus ATCC 13709; [4]) [µg/mL] | Sa MIC (S. aureus ATCC 13709; Sa = S. aureus) [µg/mL] | Spn MIC (S. pneumoniae ATCC 51916) [µg/mL] | MIC Ec (E. coli ATCC 25922; [5]) [µg/mL] | Ec MIC (E. coli ATCC 25922; [6]) [µg/mL] | Pa MIC (P. aeruginosa ATCC 15692) [µg/mL] | Ab MIC (A. baumannii ATCC 19606) [µg/mL] | Kpn MIC [1] [µg/mL] | Yp MIC (Y. pestis CO92 pgm-) [µg/mL] | Bt MIC [2] [µg/mL] | Ft MIC [3] [µg/mL] | other results |
| --- | --- | --- | --- | --- | --- | --- | --- | --- | --- | --- | --- | --- |
| CNc1cc(F)cc2c1[nH]c1nc(Oc3cnc(C)nc3)nc(N3C[C@@H]4CCN[C@@H]4C3)c12 [Compound 4.103] | ≤0.5 | ≤0.5 | ≤0.5 | ≤0.5 | ≤0.5 | 2 | ≤0.5 | 2 | ≤0.5 | ≤0.5 | 1 |  |
| CNc1cc(F)cc2c1[nH]c1nc(Oc3cnc4c(C)cnn4c3)nc(N3C[C@H]4C[C@@H]3C[C@H]4N)c12 [drawing 1831] |  |  |  |  |  |  |  |  |  |  |  | SA MIC (S. aureus ATCC 13709): ≤ 0.016 µg/mL; Spn52 MIC (S. pneumoniae ATCC 51916): ≤ 0.001 µg/mL; PA MIC (P. aeruginosa ATCC 15692): 0.5 µg/mL |
| CNc1cc(F)cc2c1[nH]c1nc(Oc3cnc(C(C)O)nc3)nc(N3CC4(CCC4N)C3)c12 (centres unmarked) [Compound 4.410] | ≤0.5 | ≤0.5 | ≤0.5 | ≤0.5 | ≤0.5 | 1 | 2 | 2 |  |  |  |  |
| CNc1cc(F)cc2c1[nH]c1nc(Oc3cnc(C)nc3)nc(N3CCC4(CC4N)C3)c12 (centres unmarked) [Compound 4.066] | ≤0.5 | ≤0.5 | ≤0.5 | ≤0.5 | ≤0.5 | 2 | ≤0.5 | 2 | ≤0.5 | ≤0.5 | 1 |  |
| CNc1cc(F)cc2c1[nH]c1nc(Oc3cnc(C)nc3)nc(N3CC4NCCC4(C)C3)c12 (centres unmarked) [Compound 4.157] | ≤0.5 | ≤0.5 | ≤0.5 | ≤0.5 | ≤0.5 | 8 | ≤0.5 | 4 |  |  |  |  |
| CNc1cc(F)cc2c1[nH]c1nc(Oc3cnc(C)nc3)nc(N3CCC4(CCC4N)C3)c12 (centres unmarked) [Compound 4.117] | ≤0.5 | ≤0.5 | ≤0.5 | ≤0.5 | ≤0.5 | 1 | ≤0.5 | 2 | ≤0.5 | ≤0.5 | 1 |  |
| CNc1cc(F)cc2c1[nH]c1nc(Oc3cnc(C)nc3)nc(N3CC4C(N)C4C3)c12 (centres unmarked) [Compound 4.073] | ≤0.5 | ≤0.5 | ≤0.5 | ≤0.5 | ≤0.5 | 4 | ≤0.5 | 2 | ≤0.5 | ≤0.5 | 1 |  |
| CNc1cc(F)cc2c1[nH]c1nc(Oc3cnc(C)nc3)nc(N3C[C@H]4C[C@@H]3C[C@H]4N)c12 |  |  |  |  |  |  |  |  |  |  |  | SA MIC (S. aureus ATCC 13709): ≤ 0.016 µg/mL; Spn52 MIC (S. pneumoniae ATCC 51916): ≤ 0.016 µg/mL; PA MIC (P. aeruginosa ATCC 15692): 1 µg/mL |
| CNc1cc(F)c(C)c2c1[nH]c1nc(Oc3cnc(C)nc3)nc(N3C[C@H](N)C4(CC4)C3)c12 [Compound 6.290] |  |  |  |  |  |  |  |  |  |  |  | MIC (S. aureus ATCC 13709; [7]): ≤ 0.5 µg/mL; MIC (S. aureus ATCC 13709; [8]): ≤ 0.5 µg/mL; MIC (S. pneumoniae ATCC 51916): ≤ 0.5 µg/mL; MIC (E. coli ATCC 25922; [9]): ≤ 0.5 µg/mL; MIC (E. coli ATCC 25922; [10]): ≤ 0.5 µg/mL; MIC (P. aeruginosa ATCC 15692): 2 µg/mL (≈ 4.46 µM); MIC (A. baumannii ATCC 19606): ≤ 0.5 µg/mL; MIC [1]: 2 µg/mL (≈ 4.46 µM) |
| CNc1cc(F)cc2c1[nH]c1nc(Oc3ccc(C#N)nc3)nc(N3C[C@H]4C[C@@H]3C[C@H]4N)c12 [Compound 4.434] |  |  |  |  |  |  |  |  |  |  |  | MIC (S. aureus ATCC 13709; [7]): ≤ 0.5 µg/mL; MIC (S. aureus ATCC 13709; [8]): ≤ 0.5 µg/mL; MIC (S. pneumoniae ATCC 51916): ≤ 0.5 µg/mL; MIC (E. coli ATCC 25922; [9]): ≤ 0.5 µg/mL; MIC (E. coli ATCC 25922; [10]): ≤ 0.5 µg/mL; MIC (P. aeruginosa ATCC 15692): 1 µg/mL (≈ 2.25 µM); MIC (A. baumannii ATCC 19606): ≤ 0.5 µg/mL; MIC [1]: 1 µg/mL (≈ 2.25 µM) |
| CNc1cc(F)c(C)c2c1[nH]c1nc(Oc3cnc(C)nc3)nc(N3CC4C[C@@H]3C[C@H]4N)c12 [Compound 6.280] |  |  |  |  |  |  |  |  |  |  |  | MIC (S. aureus ATCC 13709; [7]): ≤ 0.5 µg/mL; MIC (S. aureus ATCC 13709; [8]): ≤ 0.5 µg/mL; MIC (S. pneumoniae ATCC 51916): ≤ 0.5 µg/mL; MIC (E. coli ATCC 25922; [9]): ≤ 0.5 µg/mL; MIC (E. coli ATCC 25922; [10]): ≤ 0.5 µg/mL; MIC (P. aeruginosa ATCC 15692): 1 µg/mL (≈ 2.23 µM); MIC (A. baumannii ATCC 19606): ≤ 0.5 µg/mL; MIC [1]: 2 µg/mL (≈ 4.46 µM) |
| CNc1cc(F)cc2c1[nH]c1nc(Oc3cnc4cccnc4c3)nc(N3CC4C(N)C4C3)c12 (centres unmarked) [Compound 4.035] | ≤0.5 | ≤0.5 | ≤0.5 | ≤0.5 | ≤0.5 | 4 | ≤0.5 | 2 | ≤0.5 | ≤0.5 | 1 |  |
| CNc1cc(F)cc2c1[nH]c1nc(Oc3cnc4cccnc4c3)nc(N3CC4(CCC4N)C3)c12 (centres unmarked) [Compound 4.045] | ≤0.5 | ≤0.5 | ≤0.5 | ≤0.5 | ≤0.5 | 4 | ≤0.5 | 8 | ≤0.5 | 1 | 2 |  |
| CNc1cc(F)cc2c1[nH]c1nc(Oc3cnc(C)nc3)nc(N3CC4CC(N)C4C3)c12 (centres unmarked) [Compound 4.084] | ≤0.5 | ≤0.5 | ≤0.5 | ≤0.5 | ≤0.5 | 1 | ≤0.5 | 4 | ≤0.5 | ≤0.5 | ≤0.5 |  |
| CNc1cc(F)cc2c1[nH]c1nc(Oc3cnc(C)nc3)nc(C3C[C@H]4CCN[C@H]4C3)c12 (some centres unmarked) |  |  |  |  |  |  |  |  |  |  |  | SA MIC (S. aureus ATCC 13709): < 0.03 µg/mL; Spn52 MIC (S. pneumoniae ATCC 51916): < 0.03 µg/mL; PA MIC (P. aeruginosa ATCC 15692): 2 µg/mL |
| CNc1cc(F)cc2c1[nH]c1nc(Oc3cnc4ccnn4c3)nc(N3C[C@H]4C[C@@H]3C[C@H]4N)c12 |  |  |  |  |  |  |  |  |  |  |  | SA MIC (S. aureus ATCC 13709): ≤ 0.016 µg/mL; Spn52 MIC (S. pneumoniae ATCC 51916): ≤ 0.001 µg/mL; PA MIC (P. aeruginosa ATCC 15692): 0.5 µg/mL |
| CNc1cc(F)cc2c1[nH]c1nc(Oc3cnc(C)nc3)nc(N3CC(N)C4(CC4)C3)c12 (centres unmarked) [Compound 4.069] | ≤0.5 | ≤0.5 | ≤0.5 | ≤0.5 | ≤0.5 | 4 | ≤0.5 | 2 | ≤0.5 | ≤0.5 | 2 |  |
| CNc1cc(F)cc2c1[nH]c1nc(Oc3cnc(N)nc3)nc(N3CC4CC4(CN)C3)c12 (centres unmarked) [Compound 4.185] | ≤0.5 |  |  | 8 (≈ 18.4 µM) |  |  |  |  |  |  |  |  |
| CNc1cc(F)cc2c1[nH]c1nc(Oc3cnc(C(C)OC)nc3)nc(N3CC4CC4C3)c12 (centres unmarked) [Compound 10.117] |  |  |  |  |  |  |  |  |  |  |  | MIC Sa (S. aureus ATCC 13709; Table 18, Sa): ≤ 0.5 µg/mL; MIC Ec (E. coli ATCC 25922; Table 18, Ec): ≤ 0.5 µg/mL |
| CNc1cccc2c1[nH]c1nc(Sc3cnc4cccnc4c3)nc(N3CC4C(C3)C4(N)CO)c12 (centres unmarked) [Compound 1.30] |  |  |  |  |  |  |  |  |  |  |  | MIC (S. aureus ATCC 13709; [7]): 16 µg/mL (≈ 33 µM); MIC (E. coli ATCC 25922; [9]): > 64 µg/mL |
| CNc1cc(F)cc2c1[nH]c1nc(Oc3cnc(C4CC4)nc3)nc(N3CC4CCNC4C3)c12 (centres unmarked) [Compound 4.250] | ≤0.5 |  |  | ≤0.5 |  |  |  |  |  |  |  |  |
| CNc1cc(F)cc2c1[nH]c1nc(Oc3ccc(C#N)nc3)nc(N3CC4(CCC4N)C3)c12 (centres unmarked) [Compound 4.333] | ≤0.5 |  |  | ≤0.5 |  |  |  |  |  |  |  |  |
| CCc1ncc(Oc2nc(N3CC4CC4(CN)C3)c3c(n2)[nH]c2c(NC)cc(F)cc23)cn1 (centres unmarked) [Compound 4.261] | ≤0.5 |  |  | 1 (≈ 2.23 µM) |  |  |  |  |  |  |  |  |
